Source: ChEMBL document CHEMBL5291721, “A preclinical secondary pharmacology resource illuminates target-adverse drug reaction associations of marketed drugs” (Nat Commun, 2023)

How the values were obtained:
[1] = molecular target: T1, Alpha-1A adrenergic receptor (Homo sapiens, UniProt P35348); type: functional, cell-based
T1 sequence (P35348 whole entry): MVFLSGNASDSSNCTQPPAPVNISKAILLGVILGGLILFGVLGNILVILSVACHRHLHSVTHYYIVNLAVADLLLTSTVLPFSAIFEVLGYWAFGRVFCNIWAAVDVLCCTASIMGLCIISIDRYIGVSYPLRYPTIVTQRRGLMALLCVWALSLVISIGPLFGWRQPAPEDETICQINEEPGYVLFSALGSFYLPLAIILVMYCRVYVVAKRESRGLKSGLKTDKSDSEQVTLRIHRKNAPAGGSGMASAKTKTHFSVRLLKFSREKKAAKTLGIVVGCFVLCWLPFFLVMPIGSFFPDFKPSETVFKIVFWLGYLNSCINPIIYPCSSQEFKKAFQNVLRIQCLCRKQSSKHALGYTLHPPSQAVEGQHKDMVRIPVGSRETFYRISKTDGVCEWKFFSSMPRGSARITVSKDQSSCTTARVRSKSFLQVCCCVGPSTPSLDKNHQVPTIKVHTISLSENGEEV

[2] = molecular target: T2, Gastrin/cholecystokinin type B receptor (Homo sapiens, UniProt P32239)
T2 sequence (P32239 whole entry): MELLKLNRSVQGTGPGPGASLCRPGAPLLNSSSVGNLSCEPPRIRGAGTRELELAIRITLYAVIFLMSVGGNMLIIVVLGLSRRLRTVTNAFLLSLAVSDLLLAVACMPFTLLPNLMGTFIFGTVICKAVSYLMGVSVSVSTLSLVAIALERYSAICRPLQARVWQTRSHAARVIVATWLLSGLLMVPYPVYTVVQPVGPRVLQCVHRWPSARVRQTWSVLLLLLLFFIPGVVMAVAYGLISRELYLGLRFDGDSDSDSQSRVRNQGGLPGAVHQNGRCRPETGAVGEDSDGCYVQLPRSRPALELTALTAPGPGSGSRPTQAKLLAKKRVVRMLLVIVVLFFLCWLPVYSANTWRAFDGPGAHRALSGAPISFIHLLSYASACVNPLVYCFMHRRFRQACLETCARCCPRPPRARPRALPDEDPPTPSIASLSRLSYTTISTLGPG

[3] = molecular target: Growth hormone secretagogue receptor type 1 (Homo sapiens, UniProt Q92847)
[4] = molecular target: T3, 5-hydroxytryptamine receptor 2B (Homo sapiens, UniProt P41595); type: functional, cell-based
[5] = molecular target: T3, 5-hydroxytryptamine receptor 2B
[6] = molecular target: T4, Neuropeptide Y receptor type 1 (Homo sapiens, UniProt P25929)
T4 sequence (P25929 whole entry): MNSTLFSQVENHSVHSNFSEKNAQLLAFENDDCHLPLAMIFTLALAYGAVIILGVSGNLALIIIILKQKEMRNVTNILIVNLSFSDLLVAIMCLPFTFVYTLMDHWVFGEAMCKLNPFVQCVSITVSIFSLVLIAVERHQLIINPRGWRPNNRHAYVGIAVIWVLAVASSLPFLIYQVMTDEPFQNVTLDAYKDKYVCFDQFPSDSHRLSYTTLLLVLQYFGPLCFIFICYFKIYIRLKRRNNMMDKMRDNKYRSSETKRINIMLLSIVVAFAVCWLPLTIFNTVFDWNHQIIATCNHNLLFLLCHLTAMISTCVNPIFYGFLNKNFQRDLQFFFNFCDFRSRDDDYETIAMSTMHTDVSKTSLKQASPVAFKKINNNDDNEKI

[7] = molecular target: T5, Prostaglandin G/H synthase 1 (Rattus norvegicus, UniProt Q63921); type: functional
T5 sequence (Q63921 whole entry): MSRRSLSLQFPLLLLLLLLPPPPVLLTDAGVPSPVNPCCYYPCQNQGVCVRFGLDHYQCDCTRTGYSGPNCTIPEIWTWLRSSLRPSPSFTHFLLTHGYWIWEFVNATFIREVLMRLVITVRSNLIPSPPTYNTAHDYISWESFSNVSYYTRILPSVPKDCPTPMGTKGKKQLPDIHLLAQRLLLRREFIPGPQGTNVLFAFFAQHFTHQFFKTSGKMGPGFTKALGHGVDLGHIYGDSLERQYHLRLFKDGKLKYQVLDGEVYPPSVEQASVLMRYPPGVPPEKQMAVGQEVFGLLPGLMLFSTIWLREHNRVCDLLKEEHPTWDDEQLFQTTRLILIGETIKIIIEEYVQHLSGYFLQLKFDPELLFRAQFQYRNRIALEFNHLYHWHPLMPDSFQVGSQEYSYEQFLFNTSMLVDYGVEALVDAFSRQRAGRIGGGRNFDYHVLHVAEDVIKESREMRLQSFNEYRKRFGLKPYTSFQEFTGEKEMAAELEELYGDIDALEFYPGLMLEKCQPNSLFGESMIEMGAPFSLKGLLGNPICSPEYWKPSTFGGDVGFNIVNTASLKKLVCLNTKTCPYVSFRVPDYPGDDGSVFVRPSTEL

[8] = molecular target: T6, Amine oxidase [flavin-containing] A (Homo sapiens, UniProt P21397); type: functional
T6 sequence (P21397 whole entry): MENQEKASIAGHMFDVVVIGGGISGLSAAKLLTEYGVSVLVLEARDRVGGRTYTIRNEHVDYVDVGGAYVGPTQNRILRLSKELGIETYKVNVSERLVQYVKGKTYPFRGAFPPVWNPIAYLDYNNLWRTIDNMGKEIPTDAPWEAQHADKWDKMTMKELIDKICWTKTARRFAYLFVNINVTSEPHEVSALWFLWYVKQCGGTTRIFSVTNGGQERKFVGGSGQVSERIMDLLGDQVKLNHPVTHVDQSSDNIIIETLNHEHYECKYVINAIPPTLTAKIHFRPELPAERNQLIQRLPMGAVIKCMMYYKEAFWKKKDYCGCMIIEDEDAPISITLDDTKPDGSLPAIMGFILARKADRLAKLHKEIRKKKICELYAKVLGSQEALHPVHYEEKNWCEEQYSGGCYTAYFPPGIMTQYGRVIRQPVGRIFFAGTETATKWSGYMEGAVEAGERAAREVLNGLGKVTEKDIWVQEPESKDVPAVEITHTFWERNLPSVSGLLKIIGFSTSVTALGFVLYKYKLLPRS

[9] = molecular target: T1, Alpha-1A adrenergic receptor; type: functional, cell-based; remark: listed apart in the source
[10] = molecular target: T1, Alpha-1A adrenergic receptor
Cannabinoid receptor 1 = Cannabinoid receptor 1 (Homo sapiens, UniProt P21554)
Melanocortin receptor 4 = Melanocortin receptor 4 (Homo sapiens, UniProt P32245)
Mu-type opioid receptor = Mu-type opioid receptor (Homo sapiens, UniProt P35372)
Further: assay procedure not described here.

T3 sequence (P41595 whole entry): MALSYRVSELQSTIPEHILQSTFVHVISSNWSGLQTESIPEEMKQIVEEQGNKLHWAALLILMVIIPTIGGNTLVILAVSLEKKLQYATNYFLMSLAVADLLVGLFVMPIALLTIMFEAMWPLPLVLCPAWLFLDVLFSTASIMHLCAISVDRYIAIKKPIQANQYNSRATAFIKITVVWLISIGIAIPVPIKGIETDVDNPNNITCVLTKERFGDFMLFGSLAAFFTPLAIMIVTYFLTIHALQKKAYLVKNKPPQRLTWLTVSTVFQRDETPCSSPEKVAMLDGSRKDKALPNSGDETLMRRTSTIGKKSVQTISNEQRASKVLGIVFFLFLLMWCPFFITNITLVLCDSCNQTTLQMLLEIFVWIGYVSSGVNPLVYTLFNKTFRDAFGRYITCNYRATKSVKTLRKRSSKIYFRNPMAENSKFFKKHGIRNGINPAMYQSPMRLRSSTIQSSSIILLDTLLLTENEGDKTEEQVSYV
Chain of Melanocortin receptor 4 (P32245 whole entry): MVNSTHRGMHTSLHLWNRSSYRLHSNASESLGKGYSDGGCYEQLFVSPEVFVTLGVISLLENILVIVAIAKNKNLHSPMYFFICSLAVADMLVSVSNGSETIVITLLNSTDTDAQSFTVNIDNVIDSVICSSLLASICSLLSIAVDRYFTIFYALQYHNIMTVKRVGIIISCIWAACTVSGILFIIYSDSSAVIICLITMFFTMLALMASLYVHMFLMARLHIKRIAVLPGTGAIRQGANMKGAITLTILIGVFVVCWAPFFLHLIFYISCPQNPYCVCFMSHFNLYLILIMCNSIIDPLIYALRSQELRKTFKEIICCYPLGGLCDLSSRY
Chain of Mu-type opioid receptor (P35372 whole entry): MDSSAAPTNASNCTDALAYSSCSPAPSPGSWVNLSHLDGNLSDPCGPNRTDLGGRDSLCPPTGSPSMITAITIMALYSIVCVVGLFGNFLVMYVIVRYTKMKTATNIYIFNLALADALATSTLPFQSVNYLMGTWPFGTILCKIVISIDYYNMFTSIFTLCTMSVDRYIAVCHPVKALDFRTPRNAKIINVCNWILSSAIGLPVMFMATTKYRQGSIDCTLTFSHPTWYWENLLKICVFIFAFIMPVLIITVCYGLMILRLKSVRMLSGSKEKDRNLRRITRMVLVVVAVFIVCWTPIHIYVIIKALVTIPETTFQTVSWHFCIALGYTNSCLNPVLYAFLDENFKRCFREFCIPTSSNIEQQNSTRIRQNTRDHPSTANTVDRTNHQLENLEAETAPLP
Chain of Cannabinoid receptor 1 (P21554 whole entry): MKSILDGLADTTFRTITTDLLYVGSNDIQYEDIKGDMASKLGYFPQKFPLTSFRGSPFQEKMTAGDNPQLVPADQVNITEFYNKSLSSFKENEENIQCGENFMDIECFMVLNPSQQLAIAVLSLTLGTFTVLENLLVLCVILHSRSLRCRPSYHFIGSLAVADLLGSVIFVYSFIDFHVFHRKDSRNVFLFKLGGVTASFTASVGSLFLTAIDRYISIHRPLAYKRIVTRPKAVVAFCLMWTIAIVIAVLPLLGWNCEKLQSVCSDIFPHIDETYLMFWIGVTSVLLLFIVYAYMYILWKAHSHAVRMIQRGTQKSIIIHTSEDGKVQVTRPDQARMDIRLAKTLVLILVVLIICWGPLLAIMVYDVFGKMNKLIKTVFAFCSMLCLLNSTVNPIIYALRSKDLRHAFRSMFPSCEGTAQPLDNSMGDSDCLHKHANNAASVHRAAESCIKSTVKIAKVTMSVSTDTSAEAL
Chain of Growth hormone secretagogue receptor type 1 (Q92847 whole entry): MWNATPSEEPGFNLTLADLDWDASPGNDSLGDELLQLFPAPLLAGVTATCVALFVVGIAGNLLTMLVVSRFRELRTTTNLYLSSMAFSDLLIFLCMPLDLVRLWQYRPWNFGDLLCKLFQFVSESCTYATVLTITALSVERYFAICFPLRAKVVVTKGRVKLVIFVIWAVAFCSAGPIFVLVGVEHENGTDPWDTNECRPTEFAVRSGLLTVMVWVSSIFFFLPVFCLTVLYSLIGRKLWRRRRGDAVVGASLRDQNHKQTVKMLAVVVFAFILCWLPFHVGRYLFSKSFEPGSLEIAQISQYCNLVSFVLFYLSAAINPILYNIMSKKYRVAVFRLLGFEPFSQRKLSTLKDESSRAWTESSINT

SMILES	AC50 [1]	AC50 [2]	AC50 [3]	AC50 [4]	AC50 [5]	AC50 [6]	AC50 [7]	AC50 [8]	AC50 [9]	AC50 [10]	AC50 (Cannabinoid receptor 1)	AC50 (Melanocortin receptor 4)	AC50 (Mu-type opioid receptor)
CCCCCCOc1ccccc1C(N)=O [EXALAMIDE]	> 30 µM	> 30 µM	> 30 µM	> 30 µM	0.27 µM	> 30 µM	> 30 µM	> 30 µM	> 30 µM				
C=CCC1(CC(C)C)C(=O)NC(=O)NC1=O [BUTALBITAL]	> 30 µM		> 10 µM	> 10 µM		> 10 µM	> 10 µM	> 30 µM	> 30 µM	> 30 µM	> 10 µM	> 10 µM	> 30 µM
CC=CC(=O)N(CC)c1ccccc1C	> 30 µM		> 10 µM	> 10 µM		> 10 µM	> 10 µM	> 10 µM	> 30 µM	> 10 µM	> 10 µM	> 10 µM	> 30 µM
COc1ccc2c3c1O[C@H]1[C@@H](O)C=C[C@H]4[C@@H](C2)N(C)CC[C@@]341 [CODEINE]	> 30 µM	> 30 µM	> 30 µM	> 10 µM	> 10 µM	> 30 µM	> 30 µM	> 10 µM	> 30 µM	> 10 µM	> 10 µM	> 30 µM	
CNS(=O)(=O)Cc1ccc2[nH]cc(CCN(C)C)c2c1	> 30 µM	> 30 µM	> 30 µM	13 µM	14 µM	> 30 µM	> 30 µM	> 30 µM	> 30 µM	> 30 µM		> 30 µM	> 10 µM
C#C[C@]1(O)CC[C@H]2[C@@H]3CCC4=Cc5oncc5C[C@]4(C)[C@H]3CC[C@@]21C [DANAZOL]	> 30 µM		> 10 µM	> 10 µM		> 10 µM		> 10 µM	> 30 µM	> 10 µM	> 10 µM	> 10 µM	> 30 µM
O=C(O)C[C@H](O)C[C@H](O)/C=C/c1c(C2CC2)nc2ccccc2c1-c1ccc(F)cc1 [PITAVASTATIN]	> 30 µM		> 10 µM	> 10 µM		> 10 µM	> 30 µM	> 30 µM	> 30 µM	> 10 µM	> 10 µM	> 10 µM	> 30 µM
CN1CCN(CC/C=C2/c3ccccc3Sc3ccc(S(=O)(=O)N(C)C)cc32)CC1 [THIOTHIXENE]	> 30 µM	> 30 µM	25.3 µM	> 10 µM	0.857 µM	> 30 µM	> 30 µM	> 10 µM	0.31 µM	0.0244 µM		> 30 µM	> 10 µM
CCCC(C)C1(CC)C(=O)NC(=O)NC1=O (centres undefined) [PENTOBARBITAL]	> 30 µM		> 10 µM	> 10 µM		> 10 µM	> 10 µM	> 30 µM	> 30 µM	> 30 µM	> 10 µM	> 10 µM	> 30 µM
Cc1cccc(C(C)c2cnc[nH]2)c1C (centres undefined) [MEDETOMIDINE]		> 30 µM	> 30 µM	> 30 µM		> 30 µM	> 30 µM	> 30 µM		0.11 µM	> 30 µM	> 30 µM	> 30 µM
CC1(C)O[C@@H]2C[C@H]3[C@@H]4CCC5=CC(=O)C=C[C@]5(C)[C@H]4[C@@H](O)C[C@]3(C)[C@]2(C(=O)CO)O1 [DESONIDE]	> 30 µM		> 10 µM	> 10 µM		> 10 µM	> 10 µM	> 10 µM	> 30 µM	> 10 µM	> 10 µM	> 10 µM	> 30 µM
COc1ccccc1OCCNCC(O)c1ccc(C)c(S(N)(=O)=O)c1 (centres undefined) [AMOSULALOL]	0.32 µM	> 30 µM	> 30 µM	> 30 µM	> 30 µM	> 30 µM	> 30 µM	> 30 µM	0.24 µM	0.3 µM			
C[C@H](CSC(=O)c1ccccc1)C(=O)N1C[C@@H](Sc2ccccc2)C[C@H]1C(=O)O [ZOFENOPRIL]			> 10 µM	> 10 µM		> 10 µM	> 10 µM	> 10 µM		> 10 µM	> 10 µM	> 10 µM	> 30 µM
C[C@](N)(Cc1ccc(O)c(O)c1)C(=O)O [METHYLDOPA]			> 10 µM	> 10 µM		> 10 µM	> 30 µM	> 10 µM		7.1 µM	> 10 µM	> 10 µM	> 30 µM
COc1ccc(CCN(C)CCCC(C#N)(c2cc(OC)c(OC)c(OC)c2)C(C)C)cc1OC (centres undefined) [GALLOPAMIL]	> 30 µM	> 30 µM	> 30 µM	> 30 µM	0.0819 µM	> 30 µM	> 30 µM	> 30 µM	> 30 µM				
CCCc1nc(C(C)(C)O)c(C(=O)OCc2oc(=O)oc2C)n1Cc1ccc(-c2ccccc2-c2nnn[nH]2)cc1 [OLMESARTAN MEDOXOMIL]	> 30 µM	> 50 µM	> 50 µM	> 10 µM	> 10 µM	> 10 µM	> 30 µM	> 10 µM	> 30 µM	> 10 µM		> 50 µM	> 10 µM
